Experimental data taken from US20250177412A1, “SMALL-MOLECULE INHIBITORS TARGETING THE BOB1/OCT1 INTERFACE” (NANTES UNIVERSITE, priority 2022, published 2025).

Tested on: CD4+CD25- T cells
Assay: Anti-CD3/CD28-induced T-cell proliferation (CPD)
Assay type: cell-based
Conditions: Homo sapiens, 72 h, 3 days
Method: FIGS. 7A-P are a combination of graphs and FACS plots showing that targeting the BOB1-OCT(s) interaction by compound 005 inhibits dose-dependently T-cell proliferation and selectively suppresses memory Th17 responses. Representative offset histogram overlays showing median fluorescence intensity of cell proliferation dye (CPD) in anti-CD3/CD28-activated CD4^+CD25^− T cells cultured without BOB1 inhibitor (DMSO-treated control) or in the presence of 5, 10 or 15 μM compound 005, as indicated (FIG. 7A). The percentage of proliferating cells is indicated for one representative donor. […] FIG. 7C-O show the expression of Th1-(IFNG (FIG. 7C), TNF (FIG. 7D), IL-2 (FIG. 7E) and TBX21 (FIG. 7F)), Th2-(IL-4 (FIG. 7G) and GATA3 (FIG. 7H)), Th17-(IL-17A (FIG. 7I), IL-17F (FIG. 7J), IL-21 (FIG. 7K), IL-22 (FIG. 7L) and RORC (FIG. 7M)), and Treg-(IL-10 (FIG. 7N) and FOXP3 (FIG. 7O)) associated cytokines and transcription factors during recall (memory) T cell responses in vitro. […] Each dot represents a biological replicate. Bars indicate the mean±SD. * P<0.05, ** P<0.01, **** P<0.0001.
Cells were resuspended in PBS and labelled with Cell Proliferation Dye eFluor 450 (CPD) (eBioscience) at a final concentration of 10 μM at 37° C. for 10 min, kept on ice for 5 min, and washed twice with 10 mL of ice-cold RPMI 1640 10% FCS medium.
To confirm and extend the observation that targeting the BOB1-OCT(s) interaction suppresses effector T cell proliferation efficiently, we cultured CD4^+CD25^− T cells in the presence of anti-CD3/CD28 microbeads and different concentrations of compound 005 for 3 days. […] OCT1 is constitutively expressed in T cells, whereas BOB1 is induced only after activation. […] Therefore, we next determined the consequences of inhibition of the OCT1-BOB1 complex on the expression of Th1-, Th2-, and Th17-associated cytokines during primary and secondary (memory) T-cell responses in vitro (FIGS. 7C-O). […]

## Cc1ccc(NC(=O)C2CN(c3nc(NCCCc4ccc(F)cc4)nc(NCCC(=O)O)n3)c3ccccc3O2)cc1Cl (stereo not drawn) [compound 005, 3-((4-(2-((3-chloro-4-methylphenyl)carbamoyl)-2,3-dihydro-4H-benzo[b][1,4]oxazin-4-yl)-6-((3-(4-fluorophenyl)propyl)amino)-1,3,5-triazin-2-yl)amino)propanoic acid]
5 μM
  inhibition at 5 µM: 18.8 ± 12.5%
10 μM
  inhibition at 10 µM: 50.5 ± 10.2%
15 μM
  inhibition at 15 µM: 77.5 ± 9.2%
